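96-well plates; 48 h exposure; 5 concentrations. Endpoints by linear interpolation between flanking doses. Not reached: highest tested concentration assigned. TGI denotes the concentration required for complete inhibition of growth.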
Legend:
Assay in all cases: NCI tumour cell line growth inhibition, 48 h
786-0 renal = system: 786-0 renal
UO-31 renal = system: UO-31 renal
NCI-H522 lung = system: NCI-H522 lung
SNB-19 CNS = system: SNB-19 CNS
M14 melanoma = system: M14 melanoma
A549 NSCLC = system: A549 NSCLC
COLO 205 colon = system: COLO 205 colon
HCT-15 colon = system: HCT-15 colon
BT-549 breast = system: BT-549 breast
U251 CNS = system: U251 CNS
UACC-62 melanoma = system: UACC-62 melanoma
SNB-75 CNS = system: SNB-75 CNS
SF-295 CNS = system: SF-295 CNS
SK-MEL-28 melanoma = system: SK-MEL-28 melanoma
LOX IMVI melanoma = system: LOX IMVI melanoma
SF-539 CNS = system: SF-539 CNS
RPMI-8226 leukemia = system: RPMI-8226 leukemia

| SMILES | TGI (786-0 renal) [µM] | TGI (UO-31 renal) [µM] | TGI (NCI-H522 lung) [µM] | TGI (SNB-19 CNS) [µM] | TGI (M14 melanoma) [µM] | TGI (A549 NSCLC) [µM] | TGI (COLO 205 colon) [µM] | TGI (HCT-15 colon) [µM] | TGI (BT-549 breast) [µM] | TGI (U251 CNS) [µM] | TGI (UACC-62 melanoma) [µM] | TGI (SNB-75 CNS) [µM] | TGI (SF-295 CNS) [µM] | TGI (SK-MEL-28 melanoma) [µM] | TGI (LOX IMVI melanoma) [µM] | TGI (SF-539 CNS) [µM] | TGI (RPMI-8226 leukemia) [µM] |
| --- | --- | --- | --- | --- | --- | --- | --- | --- | --- | --- | --- | --- | --- | --- | --- | --- | --- |
| O=C1C=Cc2c1csc2Br | > 100 | 72.5 | 38.4 | > 100 | 47.2 | > 100 | > 100 | > 100 | > 100 | > 100 | > 100 | > 100 | > 100 | > 100 | 60.2 |  |  |
| O=[N+]([O-])c1ccc(OP(=O)(O)OCC2OC(CP(=O)(O)O)C(O)C2O)cc1 (stereo not given) | > 100 | > 100 | > 100 | > 100 | > 100 | > 100 | > 100 | > 100 | > 100 | > 100 | > 100 |  | > 100 | > 100 | > 100 | > 100 |  |
| O=C1NC(=O)/C(=C/c2ccc(S(=O)(=O)N/N=C/c3ccccc3)cc2)N1 | > 100 | > 100 |  | > 100 | > 100 | > 100 | > 100 | > 100 | > 100 | > 100 | > 100 | > 100 | > 100 | > 100 | > 100 |  | > 100 |
| COc1ccc(C(=O)/C=C/c2ccc(OCC#N)cc2)cc1OC | 86.7 | 32.6 | 32.5 | 29.9 | 37.3 | > 100 | 24.2 | 45.5 | 30 | 29.6 | 36.7 | 22.9 |  | 29.5 |  | 36.9 |  |
| NC(CCC(=O)NC(CSC(=O)N(O)c1ccc(Cl)cc1)C(=O)NCC(=O)O)C(=O)O (stereo not given) | > 0.5 | > 0.5 | > 0.5 | > 0.5 | > 0.5 | > 0.5 | > 0.5 | > 0.5 | > 0.5 | > 0.5 | > 0.5 | > 0.5 | > 0.5 | > 0.5 |  | > 0.5 | > 0.5 |
| O=C(OCC(Cl)(Cl)Cl)N1CC[C@@H](C2CCCCC2)C1 | 43 | 40.2 | 43.1 | 38.6 | 96.5 | > 100 | 56.3 | 35.9 | > 100 | 18.9 | 85.5 | 48.7 | 38.9 |  | > 100 |  |  |
| c1csc(-c2cscc2-c2cccs2)c1 | > 100 | > 100 |  | > 100 | > 100 | > 100 | > 100 | > 100 | > 100 | > 100 | > 100 | > 100 | > 100 | > 100 | > 100 | 51.4 | > 100 |
| COc1ccc(/C=N/NS(=O)(=O)c2ccc(/C=C3\NC(=O)N(C)C3=O)cc2)cc1 | > 100 | > 100 |  | > 100 | > 100 | > 100 | > 100 | > 100 | > 100 | > 100 | > 100 | > 100 | > 100 | > 100 | > 100 |  | > 100 |
| O=C(Nc1ccccc1)c1cc2c(cc1Cl)SC(NNCCO)=NS2(=O)=O | > 100 | > 100 |  | > 100 | > 100 |  | > 100 | > 100 | > 100 | > 100 | > 100 | > 100 | > 100 | > 100 | > 100 | > 100 | > 100 |
| CSc1ncc2c(C#N)c3ccccn3c(=O)c2n1 | > 100 | > 100 |  | > 100 | > 100 | > 100 | > 100 | > 100 | > 100 | > 100 | > 100 | > 100 | > 100 | > 100 | > 100 | > 100 | > 100 |
| Nc1nc(NNc2ccccc2F)cc(=O)[nH]1 | > 100 | > 100 |  | > 100 | > 100 | > 100 | > 100 | > 100 | > 100 | > 100 |  |  | > 100 | > 100 | > 100 | > 100 | > 100 |
| COc1ccc(N2C(=O)C(C#N)=C(SC)C(C#N)C2=O)cc1 (stereo not given) | > 100 |  | > 100 | > 100 | > 100 | > 100 | > 100 | > 100 | > 100 | > 100 | > 100 | > 100 | > 100 |  | > 100 | > 100 |  |
| CC(=O)N1N=C(c2ccc3ccccc3c2O)CC1c1ccc(Cl)cc1Cl (stereo not given) | > 100 | > 100 | > 100 |  | > 100 | > 100 | > 100 | > 100 | > 100 | > 100 | > 100 | > 100 | > 100 | > 100 |  | 50.6 | > 100 |
| CCOC(=O)C1=COC(C)(C)CC1=O | > 100 | > 100 | > 100 | > 100 | > 100 | > 100 | > 100 | > 100 | > 100 | > 100 | > 100 | > 100 | > 100 | > 100 |  | > 100 | > 100 |
| Clc1cc2nnn(C3CCCCO3)c2cc1Cl (stereo not given) | > 100 | > 100 | > 100 | > 100 | > 100 | > 100 | > 100 | > 100 | > 100 | > 100 | > 100 | > 100 | > 100 |  |  | > 100 | > 100 |
